Results from publication PMC9268166, “Modeling of Anticancer Sulfonamide Derivatives Lipophilicity by Chemometric and Quantitative Structure-Retention Relationships Approaches” (Molecules, 2022).

Tests used:
[1] = IAM chromatography (IAM-HPLC), IAM.PC.DD2 column; type: physicochemical; details: for logkIAM: logkIAM = 0.045 CHIIAM + 0.42; for logkIAM / CHI (CHIIAM), Table S2: pH 7.4; for CHIIAM: pH 7.4, 30 °C, acetonitrile gradient; for CHI (CHIIAM), Table S2: IAM chromatography, from mean of three retention times
Excerpt: (§1) For this reason, the next step of our study concerns the characterization of investigated sulfonamide derivatives using a chromatographic approach. Generally, in RP-HPLC, the interactions between solutes and the stationary phase surface are mainly governed by lipophilicity. Consequently, RP-HPLC is the primary tool for assessing the lipophilicity of xenobiotics. […] Generally, the chemical character of target solutes determines interactions between the molecule and the stationary phase that may occur. Considering the large variety of RP-HPLC beds and differences in specific surface area, the energy of the sorbent’s intermolecular interactions between solutes and chemical structures, four different reversed-phase stationary phases and IAM column were investigated during this study. The lipophilicity index was presented as a logkw value, so the retention factor was extrapolated to the pure water after calculation using a protocol based on two gradient measurements and DryLab software.
(§2) Since the biomimetic chromatography experiments are carried out at physiological pH to compare obtained results, all chromatographic experiments have been carried out at pH 7.4. […] Consequently, the chromatography lipophilicity indices refer to the distribution coefficient (logD) values, which better reflect the lipophilicity of ionized substances under physiological conditions.
(§3) All HPLC experiments were carried out using a Prominence-1 LC-2030C 3D HPLC system (Shimadzu, Japan) equipped with a DAD detector and controlled by the LabSolution system (version 5.90 Shimadzu, Japan). The stock solutions of solutes were diluted to obtain 100 μg/mL concentrations, and the injected volume was 10 μL. During this study, six different columns in terms of chemical modification of stationary phases were used. Retention times (tR) of investigated sulfonamides were collected, and their detection in all systems was performed at the wavelength characteristic for each compound, summarized in Table S1. For all chromatography systems, analysis was carried out at 40 °C, except for IAM chromatography, in which oven temperature was set to 30 °C. The CHIIAM and CHI18 indices of the target sulfonamides derivatives were obtained using the protocol proposed by Valko and co-workers. C18 chromatography was performed on a Waters-C18 column (150 mm × 3.9 mm; 5.0 µm; Symmetry; USA), with a 1.5 mL/min flow rate. The mobile phase was ammonium acetate buffer (50 mM) at pH 7.4 and acetonitrile as an organic modifier. The linear gradient from 2 to 98% ACN was applied from 0 to 30 min. IAM chromatography was executed on an IAM.PC.DD2 column ([…] × 4.6 mm; 10.0 µm; Regis Technologies, Morton Grove, IL, USA) additionally equipped with an IAM guard column with the same flow rate of 1.5 mL/min. The mobile phase was sodium phosphate buffer (10 mM) at pH 7.4 and acetonitrile as the organic phase. The linear gradient from 0 to 85% was applied within 5.25 min.

[2] = C18 chromatography (RP-HPLC), chromatographic hydrophobicity index; type: physicochemical; details: for chromatographic logD: Waters Symmetry C18 column, CHI log D = 0.0525 CHIC18 − 1.467, pH 7.4; for CHIC18: pH 7.4, 40 °C, acetonitrile gradient
Excerpt: as §1, §2, §3

[3] = C8 chromatography (RP-HPLC), logkw from two gradients with DryLab; type: physicochemical; details: for logkw, Table S4: C8 chromatography, pH 7.4, short and long gradient; for logkwC8: pH 7.4, 40 °C, retention factor extrapolated to 0% organic modifier
Excerpt: as §1, §2
(§4) For C8, cyanopropyl, and phenyl chromatography, according to the assumption proposed by Snyder and co-workers, appropriate logkw values (i.e., the retention factor logk extrapolated to 0% organic modifier, as an alternative to logP) were obtained. […] Dwell volume for these HPLC systems was measured at 0.780 mL, whereas the obtained dead times for used HPLC columns were equal to 1.530 min, 1.252 min, and 2.335 min for C8, SB-CN, and UK-Phenyl, respectively. The mobile phase was ammonium acetate buffer (50 mM) at pH 7.4 and acetonitrile as an organic modifier in each system. C8 chromatography was performed on Unison UK-C8 column (150 × 2 mm; 3.0 µm. Imtakt; USA) with 0.3 mL/min flow rate. Analyses were carried out in linear gradient from 30 to 100% within 15 min in short gradient and 30 min in long gradient. The Agilent SB-CN column (150 × 4.6 mm; 3.5 µm; Zorbax; USA) was used for the cyanopropyl chromatography. The CN chromatography analyses were carried out in linear gradient from 20 to 100%, which was applied from 0 to 20 min in short gradient, and from 0 to 40 min in long gradient. The flow rate was 1.5 mL/min. The column Unison UK-Phenyl (150 × 2 mm; 3.0 µm; Imtakt; USA) was used to perform phenyl chromatography. The flow rate was set to 0.2 mL/min. The phenyl analyses were carried out in linear gradient from 40 to 100%, which was applied from 0 to 20 min in short gradient, and from 0 to 40 min in long gradient. Each HPLC analysis was run in triplicate; in Tables S2–S6, obtained retention times are listed, whereas representative chromatograms are shown in Figure 9.

[4] = Cyanopropyl (CN) chromatography, logkw from two gradients with DryLab; type: physicochemical; details: for logkw, Table S5: Cyanopropyl chromatography, pH 7.4, short and long gradient; for logkwCN: pH 7.4, 40 °C, retention factor extrapolated to 0% organic modifier
Excerpt: as §1, §2, §4

[5] = Phenyl (Ph) chromatography, logkw from two gradients with DryLab; type: physicochemical; details: for logkw, Table S6: Phenyl chromatography, pH 7.4, short and long gradient; for logkwPh: pH 7.4, 40 °C, retention factor extrapolated to 0% organic modifier
Excerpt: as §1, §2, §4

[6] = system: human colon cancer (HCT-116); design: method as in PMID 29772699, PMID 28122174, PMID 27338337, PMID 26506328; details: HCT-116 cell line; cited from earlier work

Compound	logkIAM [1]	CHIIAM [1]	chromatographic logD [2]	CHIC18 [2]	logkw, Table S4 [3]	logkwC8 [3]	logkw, Table S5 [4]	logkwCN [4]	logkw, Table S6 [5]	logkwPh [5]	CHI (CHIIAM), Table S2 [1]	pIC50 [6]
COc1ccc(-c2cnnc(NS(=O)(=O)c3cc(C(=O)Nc4ccccc4)c(Cl)cc3SCc3ccccc3)n2)cc1 [Compound 14]	2.03	35.80	2.68	78.90	4.130	4.13	2.020	2.02	4.310	4.31		4.11
COc1ccc(-c2cnnc(NS(=O)(=O)c3cc(C(=O)Nc4ccc(Cl)cc4)c(Cl)cc3SCc3ccccc3)n2)cc1 [Compound 16]	2.21	39.80	3.04	85.90	4.380	4.38	2.471	2.47	4.476	4.48		4.12
COc1ccc(-c2cnnc(NS(=O)(=O)c3cc(C(=O)Nc4ccc(C)cc4)c(Cl)cc3SCc3ccccc3)n2)cc1 [Compound 18]	2.11	37.50	2.88	82.80	4.280	4.28	2.358	2.36	4.228	4.23		4.12
COc1cc(-c2cnnc(NS(=O)(=O)c3cc(C(=O)Nc4ccc(C)cc4)c(Cl)cc3SCc3ccccc3)n2)cc(OC)c1OC [Compound 19]	1.93	33.60	2.72	79.70	4.068	4.07	2.216	2.22	3.967	3.97		4.12
COc1ccc(NC(=O)c2cc(S(=O)(=O)Nc3nncc(-c4ccc(OC)cc4)n3)c(SCc3ccccc3)cc2Cl)cc1 [Compound 20]	1.99	34.90	2.59	77.20	4.020	4.02	2.211	2.21	3.789	3.79		4.14
Cc1cc(S(=O)(=O)Nc2nncc(-c3cccc(F)c3)n2)c(SCc2cccc3ccccc23)cc1Cl [Compound 22]	2.32		2.97	84.60	4.276	4.28	2.356	2.36	4.254	4.25	42.2	4.31

The next lines start with results.

logkIAM [1]	CHIIAM [1]	chromatographic logD [2]	CHIC18 [2]	logkw, Table S4 [3]	logkwC8 [3]	logkw, Table S5 [4]	logkwCN [4]	logkw, Table S6 [5]	logkwPh [5]	CHI (CHIIAM), Table S2 [1]	Compound	pIC50 [6]
2.37	43.40	3.39	92.50	4.530	4.53	2.642	2.64	5.074	5.07		O=C(Nc1ccc(Cl)cc1)c1cc(S(=O)(=O)Nc2nncc(-c3ccc(C(F)(F)F)cc3)n2)c(SCc2ccccc2)cc1Cl [Compound 15]	4.19
2.28	41.40	3.25	89.90	4.490	4.49	2.544	2.54	4.540	4.54		Cc1ccc(NC(=O)c2cc(S(=O)(=O)Nc3nncc(-c4ccc(C(F)(F)F)cc4)n3)c(SCc3ccccc3)cc2Cl)cc1 [Compound 17]	4.15
2.28	41.30	3.34	91.60	4.440	4.44	2.110	2.11	4.480	4.48		Cc1cc(S(=O)(=O)Nc2nncc(-c3ccc(C(F)(F)F)cc3)n2)c(SCc2ccc(C(F)(F)F)cc2)cc1Cl [Compound 21]	4.29
2.27		3.05	86.10	4.120	4.12	2.478	2.48	4.401	4.40	41.1	COc1ccc(-c2cnnc(NS(=O)(=O)c3cc(C)c(Cl)cc3SCc3cccc4ccccc34)n2)cc1 [Compound 23]	4.42
2.14		3.13	87.50	4.256	4.26	2.277	2.28	4.088	4.09	38.3	Cc1cc(S(=O)(=O)Nc2nncc(-c3cccc(F)c3)n2)c(SCc2ccc(C(F)(F)F)cc2)cc1Cl [Compound 24]	4.17
2.09		2.96	84.40	4.260	4.26	2.330	2.33	3.886	3.89	37.2	COc1ccc(-c2cnnc(NS(=O)(=O)c3cc(C)c(Cl)cc3SCc3ccc(C(F)(F)F)cc3)n2)cc1 [Compound 25]	4.17
